For assay [1], the target named is T1, human activated blood coagulation factor X (Homo sapiens, UniProt P00742).
T1 construct: purchased Calbiochem
As to the kind of experiment: Measurement of inhibitory activity for activated blood coagulation factor X (S-2222 chromogenic substrate). Format: biochemical. The following applies: substrate S-2222, tris-NaCl buffer pH 8.4, 10 minutes at 37° C., absorbance 405 nm.
Procedure: Measurement of Inhibitory Activity for Activated Blood Coagulation Factor X 2.5 μL of a dimethylsulfoxide solution of a test compound, 187.5 μL of 100 mM tris-200 mM NaCl buffer (pH 8.4) and 50 μL of 1 mM S-2222 (Daiichi Pure Chemicals) aqueous solution were poured into 96 well microplate. Then 10 μL of 0.6 U/mL human activated blood coagulation factor X (Calbiochem) in gelatin-glycine buffer was added and the mixture was incubated for 10 minutes at 37° C. The reaction was terminated with the addition of 50 μL of 60% acetic acid and absorbance (405 nm) was measured by a microplate reader (SPECTRAmax250, Molecular Devices). The group with 2.5 μL of the dimethylsulfoxide solution instead of the test compound solution was defined as the control, and the group with 10 μL of the gelatin-glycine buffer solution instead of human activated blood coagulation factor X was defined as the blank.

A further assay deals with T2, human thrombin (Homo sapiens, UniProt P00734).
T2 construct: human thrombin (Sigma Chemical Company); purchased Sigma Chemical Company
Put plainly: Measurement of inhibitory activity for thrombin (S-2238 chromogenic substrate). The class given is biochemical. The following applies: substrate S-2238, tris-NaCl buffer pH 8.4, 10 minutes at 37° C., absorbance 405 nm. On the procedure:
Measurement of Inhibitory Activity for Thrombin
2.5 μL of a dimethylsulfoxide solution of a test compound, 187.5 μL of 100 mM tris-200 mM NaCl buffer (pH 8.4) and 50 μL of 1 mM S-2238 (Daiichi Pure Chemicals) aqueous solution were poured into 96 well microplate. Then 10 μL of 2.0 U/mL human thrombin (Sigma Chemical Company) in gelatin-glycine buffer was added and the mixture was incubated for 10 minutes at 37° C. The reaction was terminated with the addition of 50 μL of 60% acetic acid and absorbance (405 nm) was measured by a microplate reader (SPECTRAmax250, Molecular Devices).
The group with 2.5 μL of the dimethylsulfoxide solution instead of the test compound solution was defined as the control, and the group with 10 μL of the gelatin-glycine buffer solution instead of human thrombin was defined as the blank. The concentration of a test compound that inhibited the absorbance of control by 50% (IC50) was obtained, and this value was used as the index of inhibitory activity for thrombin.

The text below walks through data of patent US7022689B2, “5-amidino-n-(2-aminophenethyl)-n-hydroxy-benzenesulffonamide derivative, medical composition containing the same, pharmaceutical use thereof and intermediate therefor” (Kissei Pharmaceutical Co., Ltd., priority 2001, dated 2006).

Each structure is given as a SMILES string. Structures can show the parent of a compound that is named as a salt.

T1 sequence (P00742 235-488 limits assumed): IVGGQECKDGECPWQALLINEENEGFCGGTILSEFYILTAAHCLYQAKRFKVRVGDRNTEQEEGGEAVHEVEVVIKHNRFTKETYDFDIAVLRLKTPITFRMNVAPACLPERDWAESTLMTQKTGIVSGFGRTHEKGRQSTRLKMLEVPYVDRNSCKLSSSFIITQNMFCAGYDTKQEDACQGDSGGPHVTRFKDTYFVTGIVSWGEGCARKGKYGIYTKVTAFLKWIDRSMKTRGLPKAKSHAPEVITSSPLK
T1 sequence (P00742 41-179 partner limits assumed): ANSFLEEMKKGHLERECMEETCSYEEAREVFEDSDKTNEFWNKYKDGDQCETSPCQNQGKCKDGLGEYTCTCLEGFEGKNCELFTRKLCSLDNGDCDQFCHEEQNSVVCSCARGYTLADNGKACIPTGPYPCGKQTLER

As for `CS(=O)(=O)c1ccccc1-c1ccc(CCNS(=O)(=O)c2cc(C(=N)N)ccc2O)c(NCC(=O)O)c1` [Compound 17, [[4-[2-(5-Carbamimidoyl-2-hydroxybenzenesulfonylamino)ethyl]-2′-methanesulfonylbiphenyl-3-yl]amino]acetic aid hydrochloride], the results for the IC50 (in assay [1]; against human thrombin) were 0.0071 µM and 37 µM, respectively.
The corresponding values for `CC(C)c1ccc(CCNS(=O)(=O)c2cc(C(=N)N)ccc2O)c(NCC(=O)O)c1` [Compound 18, [[2-[2-(5-Carbamimidoyl-2-hydroxybenzenesulfonylamino)ethyl]-5-isopropylphenyl]amino]acetic acid] are 0.077 µM and above 100 µM.

In general, IC50 refers to the concentration needed to halve the response being measured.
